# According to article PMC11770101, “Nonenzymatic lysine D-lactylation induced by glyoxalase II substrate SLG dampens inflammatory immune responses” (Cell Research, 2025):
# Biological target: T1, glyoxalase II (GLO2) (Mus musculus, UniProt Q99KB8)
# T1 construct: gene Hagh
# Test: LC-MS quantification of accumulated GLO2 substrate SLG in BMDMs treated with […] DiFMOC-G for […] h
# Format: cell-based
structure (smiles),measurement,value
O=C(O)CNC(=O)[C@H](CSC(=O)OCC1c2ccccc2-c2ccccc21)NC(=O)CC[C@H](NC(=O)OCC1c2ccccc2-c2ccccc21)C(=O)O [DiFMOC-G],LC-MS quantification of accumulated GLO2 substrate SLG in BMDMs treated with 0.4,"treatment with DiFMOC-G could dramatically induce SLG accumulation (Fig. 4e), recapitulating changes observed during macrophage activation"
